Results: patent US20080004310A1, “LYOPHILIZED PHARMACEUTICAL COMPOSITION” (priority 2006, published 2008)
Structures can show the parent of a compound that is named as a salt. Where two headings read alike, the source gives them in different places.

What was measured:
[1] = Accelerated aging of lyophilized composition (assay of active components after reconstitution); type: physicochemical; conditions: accelerated conditions 40° C./75% RH
Procedure: Aliquots of the clear solution (3 ml) were filtered through a sterilizing 0.22 um filter into lyophilization vials (5 ml). The filled lyophilization vials were topped, but not sealed, with lyophilization stoppers and freeze-dried according the following procedure. The topped vials were placed into a commercial freeze-drier. The temperature of the drier was lowered to about −40° C. and maintained at that temperature for at least 6 hours. […] Following the three temperature increasing steps, the vials were sealed under vacuum, the freeze-drier was returned to normal atmospheric pressure, and the vials were removed from the freeze-drier. In accelerated aging conditions, the active components of the lyophilized compositions of the present invention have an extended shelf live of as much as 120 days. The accelerated aging data for one, three, and four weeks is set out in Table 1. In Table 1, each week of accelerated aging corresponds to about one month of normal aging. [table]

[2] = system: patient with erectile dysfunction; assay: Treatment of a patient having erectile dysfunction by injection of the reconstituted lyophilized composition; type: in vivo; conditions: for treatment effect on erectile dysfunction: general method of treatment of Example 3, single lyophilized agent only
From the text: In one embodiment, a lyophilized composition may be used to treat a patient having erectile dysfunction. The lyophilized composition is formed by first providing an erectile inducing amount of at least one lyophilized compound selected from papverine hydrochloride, phentolamine mesylate, and alprostadil. The lyophilized composition is then reconstituted with a pharmaceutically acceptable solvent, such as sterilized water, to produce a reconstituted pharmaceutical solution. The reconstituted pharmaceutical solution is then administered to the patient. Once the lyophilized compounds are reconstituted, the reconstituted pharmaceutical solution may be administered to the patient by a variety of methods, including, but not limited to orally or by injection. In one embodiment, the composition is administered by injection. Any suitable method of injection, such as intracavernosal, intravenous, intraarterial, intramuscular, intraperitoneal, intraportal, intradermal or subcutaneous may be used.
A person, 75 kilogram (kg) […] patient is diagnosed with having erectile dysfunction. The patient is instructed to inject the lypholized preparation of 30 mg/ml papaverine, 1.0 mg/ml phentolamine mesylate, and 10 μg/ml alprostadil on a daily basis, if this is the intended frequency of sexual activity. The lyophilized papaverine, phentolamine, and alprostadil are prepared according to Example 1. The patient is examined after one month.
A 70 kg patient is apparently in good health. They present complaints of a loss of sexual desire and frequent erectile dysfunction. They report that although they are periodically interested in initiating sexual relations, on most occasions they are unable to maintain a high level of interest sufficiently long to initiate or to adequately respond to their spouse's initiating sexual activity. […] 1.0 mg/ml of lyophilized phentolamine is given to […]. The reconstituted phentolamine is injected about 0.5 hours before the patient intended to engage in sexual activity. The patient is examined after one month. They report that they take the drug combination 2-3 times per week.
Following the general method of treatment described in Example 3, non-critical variations are made to the composition of Example 3 such that only 10 μg/ml of lyophilized alprostadil is used.
Following the general method of treatment described in Example 3, non-critical variations are made to the composition of Example 3 such that only 30 mg/ml of lyophilized papaverine hydrochloride is used.

[3] = general solubility, not lyophilized; cited from earlier work
[4] = Week One, each week about one month of normal aging

| SMILES | % of Expected ([1]; Week Four) [%] | Assayed Conc. ([1]; Week Four) [mg/mL] | % of Expected ([1]; Week One) [%] | Assayed Conc. ([1]; Week One) [mg/mL] | % of Expected ([1]; Week Three) [%] | Assayed Conc. ([1]; Week Three) | treatment effect on erectile dysfunction [2] | Assayed Conc. [1, 4] [mg/mL] | maintenance of erection ([2]; 70 kg patient, 1.0 mg/ml, injected about 0.5 hours before sexual activity, 2-3 times per week, examined after one month) | sexual desire / motivation ([2]; 70 kg patient, 1.0 mg/ml, injected about 0.5 hours before sexual activity, examined after one month) | solubility [3] | solubility (physchem) [mg/mL] |
| --- | --- | --- | --- | --- | --- | --- | --- | --- | --- | --- | --- | --- |
| CCCCC[C@H](O)/C=C/[C@H]1[C@H](O)CC(=O)[C@@H]1CCCCCCC(=O)O [Alprostadil, alprostadil] | 95 | 0.0095 | 105 | 0.0105 | 100 | 0.01 mg/mL | same positive treatment effect | – | – | – | – | – |
| Cc1ccc(N(CC2=NCCN2)c2cccc(O)c2)cc1 [Phentolamine Mesylate, phentolamine mesylate] | 100 | 1.0 | 100 | – | 92 | .92 mg/mL | – | 1.0 | no difficulty maintaining an erection to completion of sexual intercourse | feels motivated to initiate sexual activity | – | – |
| COc1ccc(Cc2nccc3cc(OC)c(OC)cc23)cc1OC [Papaverine HCl, papaverine hydrochloride] | 78 | 23.4 | 65.7 | – | 67.7 | 20.3 mg/mL | same positive treatment effect | 19.7 | – | – | about 30 mg/ml | ~90 |
